# Assay results from patent US9540391B2, “Isomannide derivatives as inhibitors of soluble epoxide hydrolase” (SANOFI, priority 2013, dated 2017).
# Counter-ions that a name gives are not always drawn.
# Molecular target: T1, recombinant sEH (Homo sapiens, UniProt P34913)
# T1 construct: made in house; host or cells: Sf9 insect cells
# T1 sequence (P34913 1-555): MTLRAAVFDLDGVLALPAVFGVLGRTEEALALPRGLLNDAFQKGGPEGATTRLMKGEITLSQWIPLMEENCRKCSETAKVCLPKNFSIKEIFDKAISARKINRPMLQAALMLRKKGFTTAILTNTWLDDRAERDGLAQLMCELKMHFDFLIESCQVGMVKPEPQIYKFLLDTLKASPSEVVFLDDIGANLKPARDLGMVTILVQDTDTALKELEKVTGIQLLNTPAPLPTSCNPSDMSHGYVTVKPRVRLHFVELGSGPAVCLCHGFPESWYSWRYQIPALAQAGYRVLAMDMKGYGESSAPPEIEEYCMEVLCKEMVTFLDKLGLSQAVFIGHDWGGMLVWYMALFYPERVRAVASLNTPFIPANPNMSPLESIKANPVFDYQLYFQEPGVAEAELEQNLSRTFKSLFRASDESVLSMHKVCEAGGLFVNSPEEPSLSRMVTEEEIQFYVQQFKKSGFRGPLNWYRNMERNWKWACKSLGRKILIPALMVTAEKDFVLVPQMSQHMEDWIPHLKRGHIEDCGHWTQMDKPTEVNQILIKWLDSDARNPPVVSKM
# Assay: biochemical screening assay for inhibition of soluble epoxide hydrolase (fluorometric, Phome substrate)
# How it was run: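 Human sEH from Sf9 cells (2 nM final) was pre-incubated 15 min at 30 °C with compound (0.0001–10 μM), then reacted 60 min at 30 °C with 5 μM Phome in 25 mM Hepes/0.01% albumin. Fluorescence of released 6-methoxy-2-naphthaldehyde was read before substrate and at end; IC50 from % inhibition.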
row,SMILES,IC50
1,"Cc1ncccc1O[C@H]1CO[C@H]2[C@@H]1OC[C@@H]2NC(=O)NC1CCCN(C(=O)C(C)(C)C)C1 (stereo partly drawn) [Example 88, 1-[1-(2,2-Dimethyl-propionyl)-piperidin-3-yl]-3-[(3S,3aR,6S,6aS)-6-(2-methyl-pyridin-3-yloxy)-hexahydro-furo[3,2-b]furan-3-yl]-urea]",0.053 µM
2,"O=C(NC1CCCCC1)N[C@H]1CO[C@H]2[C@@H]1OC[C@@H]2Oc1cccc2ccc(N3CCCC3)nc12 [Example 137, 1-Cyclohexyl-3-[(3S,3aR,6S,6aS)-6-(2-pyrrolidin-1-yl-quinolin-8-yloxy)-hexahydro-furo[3,2-b]furan-3-yl]-urea; trifluoroacetate]",0.004 µM
3,"CC(C)S[C@H]1CO[C@H]2[C@@H]1OC[C@@H]2NC(=O)NC1CCCCC1 [Example 17, 1-Cyclohexyl-3-((3S,3aR,6S,6aS)-6-isopropylsulfanyl-hexahydro-furo[3,2-b]furan-3-yl)-urea]",0.001 µM
4,"O=C(NC1CCCCC1)N[C@H]1CO[C@H]2[C@@H]1OC[C@@H]2Oc1ccc(C(=O)N2CCNCC2)cc1 [Example 126, 1-Cyclohexyl-3-{(3S,3aR,6S,6aS)-6-[4-(piperazine-1-carbonyl)-phenoxy]-hexahydro-furo[3,2-b]furan-3-yl}-urea; trifluoroacetate]",0.03 µM
5,"O=C(NC1CCCCC1)N[C@H]1CO[C@H]2[C@@H]1OC[C@@H]2Oc1ccccc1CN1CCCCC1 [Example 135, 1-Cyclohexyl-3-[(3S,3aR,6S,6aS)-6-(2-piperidin-1-ylmethyl-phenoxy)-hexahydro-furo[3,2-b]furan-3-yl]-urea; trifluoroacetate]",0.02 µM
6,"O=C(NC1CCCCC1)N[C@H]1CO[C@H]2[C@@H]1OC[C@@H]2Oc1cccc(Cl)c1 [Example 132, 1-[(3S,3aR,6S,6aS)-6-(3-Chloro-phenoxy)-hexahydro-furo[3,2-b]furan-3-yl]-3-cyclohexyl-urea]",0.002 µM
7,"Cc1ccnc(C)c1O[C@H]1CO[C@H]2[C@@H]1OC[C@@H]2NC(=O)NC1CCCCC1 [Example 37, 1-Cyclohexyl-3-[(3S,3aR,6S,6aS)-6-(2,4-dimethyl-pyridin-3-yloxy)-hexa-hydro-furo[3,2-b]furan-3-yl]-urea]",0.001 µM
8,"O=C(NC1CCCCC1)N[C@H]1CO[C@H]2[C@@H]1OC[C@@H]2Oc1ccccc1 [Example 115, 1-Cyclohexyl-3-((3S,3aR,6S,6aS)-6-phenoxy-hexahydro-furo[3,2-b]furan-3-yl)-urea]",0.003 µM
9,"Cc1ncccc1O[C@H]1CO[C@H]2[C@@H]1OC[C@@H]2NC(=O)NC(C)(C)COC(C)(C)C [Example 226, 1-(2-tert-Butoxy-1,1-dimethyl-ethyl)-3-[(3S,3aR,6S,6aS)-6-(2-methyl-pyridin-3-yloxy)-hexahydro-furo[3,2-b]furan-3-yl]-urea]",0.475 µM
10,"Cc1ncccc1O[C@H]1CO[C@H]2[C@@H]1OC[C@@H]2NC(=O)NC1CCCCC1C(F)(F)F (stereo partly drawn) [Example 275, 1-[(3S,3aR,6S,6aS)-6-(2-Methyl-pyridin-3-yloxy)-hexahydro-furo[3,2-b]furan-3-yl]-3-(2-trifluoromethyl-cyclohexyl)-urea]",0.019 µM
11,"CC(C)(C)Oc1ccc(O[C@H]2CO[C@H]3[C@@H]2OC[C@@H]3NC(=O)NC2CCCCC2)cc1 [Example 116, 1-[(3S,3aR,6S,6aS)-6-(4-tert-Butoxy-phenoxy)-hexahydro-furo[3,2-b]furan-3-yl]-3-cyclohexyl-urea]",0.003 µM
12,"Cc1ncccc1O[C@H]1CO[C@H]2[C@@H]1OC[C@@H]2NC(=O)NC1CCN(C(=O)C(C)C)CC1 [Example 212, 1-(1-Isobutyryl-piperidin-4-yl)-3-[(3S,3aR,6S,6aS)-6-(2-methyl-pyridin-3-yloxy)-hexahydro-furo[3,2-b]furan-3-yl]-urea]",0.037 µM
13,"Cc1ncccc1O[C@H]1CO[C@H]2[C@@H]1OC[C@@H]2NC(=O)NC1CCC(C)(C)CC1 [Example 268, 1-(4,4-Dimethyl-cyclohexyl)-3-[(3S,3aR,6S,6aS)-6-(2-methyl-pyridin-3-yloxy)-hexahydro-furo[3,2-b]furan-3-yl]-urea]",0.002 µM
14,"Cc1ncccc1OC1COC2C(NC(=O)NC34CC5(C)CC(C)(CC(O)(C5)C3)C4)COC12 [Example 230, 1-((1R,3S,5R,7S)-3-Hydroxy-5,7-dimethyl-adamantan-1-yl)-3-[(3S,3aR,6S,6aS)-6-(2-methyl-pyridin-3-yloxy)-hexahydro-furo[3,2-b]furan-3-yl]-urea]",0.019 µM
15,"COCC(NC(=O)N[C@H]1CO[C@H]2[C@@H]1OC[C@@H]2Oc1cccnc1C)c1ccnn1C (stereo partly drawn) [Example 211, 1-[2-Methoxy-1-(2-methyl-2H-pyrazol-3-yl)-ethyl]-3-[(3S,3aR,6S,6aS)-6-(2-methyl-pyridin-3-yloxy)-hexahydro-furo[3,2-b]furan-3-yl]-urea]",1.08 µM
16,"Cc1ncccc1O[C@H]1CO[C@H]2[C@@H]1OC[C@@H]2NC(=O)NCC1(C)CCCO1 (stereo partly drawn) [Example 209, 1-[(3S,3aR,6S,6aS)-6-(2-Methyl-pyridin-3-yloxy)-hexahydro-furo[3,2-b]furan-3-yl]-3-(2-methyl-tetrahydro-furan-2-ylmethyl)-urea]",0.819 µM
17,"Cc1ncccc1O[C@H]1CO[C@H]2[C@@H]1OC[C@@H]2NC(=O)NCC1COC(C)(C)O1 (stereo partly drawn) [Example 191, 1-(2,2-Dimethyl-[1,3]dioxolan-4-ylmethyl)-3-[(3S,3aR,6S,6aS)-6-(2-methyl-pyridin-3-yloxy)-hexahydro-furo[3,2-b]furan-3-yl]-urea]",0.489 µM
18,"Cc1ncccc1OC1COC2C(NC(=O)NC3CCCN(C(=O)C(C)C)C3)COC12 [Example 84, 1-(1-Isobutyryl-piperidin-3-yl)-3-[(3S,-3aR,6S,6aS)-6-(2-methyl-pyridin-3-yloxy)-hexahydro-furo[3,2-b]furan-3-yl]-urea]",0.059 µM

# Results, then the compound that gave them:
row,IC50,SMILES
1,0.487 µM,"O=C(N[C@H]1CO[C@H]2[C@@H]1OC[C@@H]2Oc1ccc(F)cc1)N[C@@H]1CCCC[C@H]1OCc1ccccc1 [Example 164, 1-((1R,2R)-2-Benzyloxy-cyclohexyl)-3-[(3S,3aR,6S,6aS)-6-(4-fluoro-phenoxy)-hexahydro-furo[3,2-b]furan-3-yl]-urea]"
2,0.012 µM,"O=C(Nc1ccc2c(c1)CCC2)N[C@H]1CO[C@@H]2[C@@H](CCc3ccsc3)CO[C@@H]21 [Example 367, 1-Indan-5-yl-3-[(3S,3aR,6S,6aR)-6-(2-thiophen-3-yl-ethyl)-hexahydro-furo[3,2-b]furan-3-yl]-urea]"
3,0.304 µM,CCCCOc1ccc(NC(=O)NC2COC3C(C#N)COC23)cc1 (stereo not drawn) [Example 380]
4,0.001 µM,"O=C(NC1CCCCC1)N[C@H]1CO[C@H]2[C@@H]1OC[C@@H]2Oc1ccc(Oc2ccccn2)cc1 [Example 109, 1-Cyclohexyl-3-{(3S,3aR,6S,6aS)-6-[4-(pyridin-2-yloxy)-phenoxy]-hexa-hydro-furo[3,2-b]furan-3-yl}-urea]"
5,0.238 µM,"Cc1ncccc1O[C@H]1CO[C@H]2[C@@H]1OC[C@@H]2NC(=O)Nc1cc(C(C)(C)C)[nH]n1 [Example 215, 1-(5-tert-Butyl-1H-pyrazol-3-yl)-3-[(3S,3aR,6S,6aS)-6-(2-methyl-pyridin-3-yloxy)-hexahydro-furo[3,2-b]furan-3-yl]-urea]"
6,0.235 µM,"O=C(Nc1ccc(OC(F)(F)F)cc1)N[C@H]1CO[C@@H]2[C@@H](CCc3ccsc3)CO[C@@H]21 [Example 374, 1-[(3S,3aR,6S,6aR)-6-(2-Thiophen-3-yl-ethyl)-hexahydro-furo[3,2-b]furan-3-yl]-3-(4-trifluoromethoxy-phenyl)-urea]"
7,0.089 µM,"O=C(Nc1ccc(F)cc1)N[C@H]1CO[C@H]2[C@@H]1OC[C@@H]2/C=C\c1ccsc1 [Example 340, 1-(4-Fluoro-phenyl)-3-[(3S,3aR,6S,6aR)-6-((Z)-2-thiophen-3-yl-vinyl)-hexahydro-furo[3,2-b]furan-3-yl]-urea]"
8,0.006 µM,"COc1ccc([C@@H](C)NC(=O)N[C@H]2CO[C@H]3[C@@H]2OC[C@@H]3Oc2ccc(F)cc2)cc1 [Example 168, 1-[(3S,3aR,6S,6aS)-6-(4-Fluoro-phenoxy)-hexahydro-furo[3,2-b]furan-3-yl]-3-[(R)-1-(4-methoxy-phenyl)-ethyl]-urea]"
9,0.418 µM,"Cc1cccc(CNC(=O)N[C@H]2CO[C@H]3[C@@H]2OC[C@@H]3/C=C\c2ccsc2)c1 [Example 339, 1-(3-Methyl-benzyl)-3-[(3S,3aR,6S,6aR)-6-((Z)-2-thiophen-3-yl-vinyl)-hexahydro-furo[3,2-b]furan-3-yl]-urea]"
10,0.006 µM,"Cc1ncccc1O[C@H]1CO[C@H]2[C@@H]1OC[C@@H]2NC(=O)NC1CCC(c2ccccc2)CC1 (stereo partly drawn) [Example 264, 1-[(3S,3aR,6S,6aS)-6-(2-Methyl-pyridin-3-yloxy)-hexahydro-furo[3,2-b]furan-3-yl]-3-(4-phenyl-cyclohexyl)-urea]"
11,0.027 µM,"O=C(NC1CCCc2ccccc21)N[C@H]1CO[C@H]2[C@@H]1OC[C@@H]2Oc1ccc(F)cc1 (stereo partly drawn) [Example 158, 1-[(3S,3aR,6S,6aS)-6-(4-Fluoro-phenoxy)-hexahydro-furo[3,2-b]furan-3-yl]-3-(1,2,3,4-tetrahydro-naphthalen-1-yl)-urea]"
12,0.012 µM,"O=C(NC1CCCCC1)N[C@H]1CO[C@H]2[C@@H]1OC[C@@H]2Oc1ccc2cc(Br)ccc2c1 [Example 99, 1-[(3S,3aR,6S,6aS)-6-(6-Bromo-naphthalen-2-yloxy)-hexahydro-furo-[3,2-b]furan-3-yl]-3-cyclohexyl-urea]"
